Values quoted from earlier work in patent publication US20060111442A1, “Use of methyl pyruvate to increase cellular energy production downstream of glycolysis for the PARP-1 ablation of HIV without necrotic cell death caused by continuous, chronic PARP-1 activation through the concomitant depletion of ATP and NAD” (priority 2004, published 2006).
Where two headings read alike, the source gives them in different places.

Columns and labels:
[1] = 30 mg/kg i.p. 30 min prior to rosiglitazone
[2] = system: human non-small cell lung carcinoma cell lines (H1838 and H2106)
[3] = system: human mammary tumour cell lines
PPARgamma [4] = target: T1, PPARgamma (Homo sapiens, UniProt P37231); design: endogenous in cells; host or cells: human mammary tumour cell lines
T1 sequence (P37231 1-505): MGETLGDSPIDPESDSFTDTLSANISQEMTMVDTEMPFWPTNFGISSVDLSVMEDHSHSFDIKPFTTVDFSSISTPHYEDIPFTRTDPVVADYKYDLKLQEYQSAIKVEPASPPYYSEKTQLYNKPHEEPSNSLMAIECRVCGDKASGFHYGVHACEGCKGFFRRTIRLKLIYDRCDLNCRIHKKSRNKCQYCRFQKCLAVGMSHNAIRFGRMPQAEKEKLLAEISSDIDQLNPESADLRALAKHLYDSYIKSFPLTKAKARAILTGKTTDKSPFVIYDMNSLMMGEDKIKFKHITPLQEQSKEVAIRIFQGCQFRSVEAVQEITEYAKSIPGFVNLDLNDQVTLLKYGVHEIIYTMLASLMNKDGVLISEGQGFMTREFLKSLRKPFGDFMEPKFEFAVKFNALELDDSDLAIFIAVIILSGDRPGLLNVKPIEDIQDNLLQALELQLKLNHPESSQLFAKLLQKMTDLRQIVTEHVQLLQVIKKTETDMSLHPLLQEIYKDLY

[5] = system: hepatic stellate cells (HSC)
[6] = system: human neuroblastoma cells (SK-N-SH and SK-N-MC); conditions: for 15-deoxy-PGJ2-induced cell growth inhibition: co-treatment
[7] = system: porcine carotid artery strips; conditions: for change in resting tone: 10 mM KCl
[8] = system: primary astrocyte cultures; conditions: for MPT and cell death: after PARP-1 activation, cyclosporin A sub-micromolar
[9] = system: human glioblastoma cell lines (A172, U87-MG, M059K, M059J); conditions: all cell lines
THP-1 monocytic cells = conditions: PMA-stimulated
[10] = system: Mouse neuron and astrocyte cultures; conditions: for NAD(+) depletion resulting from PARP1 activation: MNNG or H(2)O(2); for poly(ADP-ribose) accumulation: during MNNG exposure, immunostaining; for Cell death: hydrogen peroxide, NMDA or MNNG exposure
PPARgamma [11] = target: T1, PPARgamma; design: expressed in transfected cells
PPARalpha = target: T2, PPARalpha (Homo sapiens, UniProt Q07869)
T2 construct: expressed in transfected cells

[12] = mouse, in vivo
[13] = not given; remark: listed apart in the source
[14] = system: isolated beta-cell mitochondria; conditions: with glutamate, vs pyruvate/glutamate
K(ATP) channels = target: T3, K(ATP) channels (Homo sapiens, UniProt Q09428+Q14654); conditions: standard whole-cell configuration
T3 construct: endogenous in cells; host or cells: pancreatic beta-cells

[15] = system: isolated rat pancreatic islets
[16] = system: Jurkat T-lymphocyte mitochondria
[17] = system: rat aortic vascular smooth muscle cell; conditions: 0.1-10 microM
[18] = human, in vivo

T2 sequence (Q07869 whole entry, species assumed): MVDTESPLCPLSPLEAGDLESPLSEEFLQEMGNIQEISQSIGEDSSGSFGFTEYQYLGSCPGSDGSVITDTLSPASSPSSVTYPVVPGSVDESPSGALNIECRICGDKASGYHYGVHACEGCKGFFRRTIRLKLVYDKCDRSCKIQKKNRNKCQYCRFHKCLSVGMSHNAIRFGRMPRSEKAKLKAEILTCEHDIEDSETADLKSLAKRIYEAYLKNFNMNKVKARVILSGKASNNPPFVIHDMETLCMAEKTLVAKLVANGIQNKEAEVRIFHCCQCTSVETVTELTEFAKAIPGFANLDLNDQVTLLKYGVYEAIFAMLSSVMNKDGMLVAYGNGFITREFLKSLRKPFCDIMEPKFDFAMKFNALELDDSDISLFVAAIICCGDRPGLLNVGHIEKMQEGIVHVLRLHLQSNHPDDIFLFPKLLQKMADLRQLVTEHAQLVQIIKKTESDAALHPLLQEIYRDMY
T3 sequence (Q14654 whole entry): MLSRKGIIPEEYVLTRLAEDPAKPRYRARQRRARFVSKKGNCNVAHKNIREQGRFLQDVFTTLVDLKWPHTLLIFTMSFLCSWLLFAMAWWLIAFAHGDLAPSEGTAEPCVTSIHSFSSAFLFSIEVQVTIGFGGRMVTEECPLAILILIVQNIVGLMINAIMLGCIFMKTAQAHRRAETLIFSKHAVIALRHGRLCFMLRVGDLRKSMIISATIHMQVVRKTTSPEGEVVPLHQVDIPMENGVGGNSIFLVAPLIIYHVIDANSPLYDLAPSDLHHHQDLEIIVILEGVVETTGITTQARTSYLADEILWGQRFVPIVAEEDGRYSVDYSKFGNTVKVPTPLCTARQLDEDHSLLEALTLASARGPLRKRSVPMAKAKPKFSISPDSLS
T3 sequence (Q09428 whole entry): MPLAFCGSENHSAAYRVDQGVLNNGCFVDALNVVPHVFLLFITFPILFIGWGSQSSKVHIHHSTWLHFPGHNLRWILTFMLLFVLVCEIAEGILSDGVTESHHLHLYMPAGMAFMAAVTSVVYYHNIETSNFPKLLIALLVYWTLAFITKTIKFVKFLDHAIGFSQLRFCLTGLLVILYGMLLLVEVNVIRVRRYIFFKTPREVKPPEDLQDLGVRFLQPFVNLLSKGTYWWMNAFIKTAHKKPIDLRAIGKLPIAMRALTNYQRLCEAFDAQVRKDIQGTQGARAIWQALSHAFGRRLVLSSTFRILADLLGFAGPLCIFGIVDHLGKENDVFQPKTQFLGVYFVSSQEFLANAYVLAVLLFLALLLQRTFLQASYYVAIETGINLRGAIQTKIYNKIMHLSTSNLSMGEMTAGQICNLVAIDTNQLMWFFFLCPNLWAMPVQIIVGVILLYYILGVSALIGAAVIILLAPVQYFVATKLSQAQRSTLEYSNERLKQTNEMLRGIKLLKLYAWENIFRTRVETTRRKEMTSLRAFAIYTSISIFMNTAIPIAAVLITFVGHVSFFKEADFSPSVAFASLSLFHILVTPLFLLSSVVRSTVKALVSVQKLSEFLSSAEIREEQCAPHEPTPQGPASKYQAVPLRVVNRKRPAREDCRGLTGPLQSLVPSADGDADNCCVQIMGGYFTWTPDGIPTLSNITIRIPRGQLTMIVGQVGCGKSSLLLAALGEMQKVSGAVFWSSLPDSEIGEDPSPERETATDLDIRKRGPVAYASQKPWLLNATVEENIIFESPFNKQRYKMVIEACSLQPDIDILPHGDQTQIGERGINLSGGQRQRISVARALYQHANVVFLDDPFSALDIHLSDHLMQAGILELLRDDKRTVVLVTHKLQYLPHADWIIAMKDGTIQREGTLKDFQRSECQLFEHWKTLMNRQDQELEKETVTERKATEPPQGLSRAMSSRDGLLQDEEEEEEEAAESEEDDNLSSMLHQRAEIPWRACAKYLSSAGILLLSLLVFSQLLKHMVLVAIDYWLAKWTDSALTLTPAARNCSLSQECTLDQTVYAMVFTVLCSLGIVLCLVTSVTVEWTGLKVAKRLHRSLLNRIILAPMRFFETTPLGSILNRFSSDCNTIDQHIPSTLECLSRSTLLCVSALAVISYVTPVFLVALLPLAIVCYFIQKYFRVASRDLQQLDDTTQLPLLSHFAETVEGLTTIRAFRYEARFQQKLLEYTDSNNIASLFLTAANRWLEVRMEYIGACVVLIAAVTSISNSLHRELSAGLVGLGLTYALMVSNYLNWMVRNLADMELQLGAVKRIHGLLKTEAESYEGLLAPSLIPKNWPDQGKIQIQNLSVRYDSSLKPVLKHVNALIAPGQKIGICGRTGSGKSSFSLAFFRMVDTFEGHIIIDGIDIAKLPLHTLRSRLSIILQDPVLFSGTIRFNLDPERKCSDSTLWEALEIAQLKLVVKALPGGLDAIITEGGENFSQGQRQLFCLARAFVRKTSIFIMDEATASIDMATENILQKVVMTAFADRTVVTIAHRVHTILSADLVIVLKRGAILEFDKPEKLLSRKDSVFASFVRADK

CC(C)CC[C@@H](O)[C@@H](C)[C@H]1CC[C@H]2[C@@H]3CC=C4C[C@@H](O)CC[C@]4(C)[C@H]3CC[C@]12C [22(R)-hydroxycholesterol]
suppressive effects of LXRs on PPARa-induced PPRE-luciferase activity (LXR): dose dependently enhanced

CC(C)(c1ccc(OCC2CO2)cc1)c1ccc(OCC2CO2)cc1 (stereo not shown) [BADGE, bisphenol A diglycidyl ether]
anti-inflammatory effects of rosiglitazone [1]: abolished the anti-inflammatory effects | protective effect of rosiglitazone or 15d-PGJ2 against gut I/R (1 mg kg-1 i.v. 30 min prior to agonist): abolished the protective effect

CCCC1([C@H](O)C/C=C/[C@H]2[C@H](O)CC(=O)[C@@H]2CCCCCCC(=O)OC)CCC1 [Butaprost]
cell growth [2]: increased lung carcinoma cell growth

CN(CCOc1ccc(C[C@H](Nc2ccccc2C(=O)c2ccccc2)C(=O)O)cc1)c1ccccn1 [GW1929]
EP2 mRNA and protein levels [2]: significant decrease | cell growth [2]: inhibition of cell growth

O=C(Nc1ccccc1)c1cc([N+](=O)[O-])ccc1Cl [GW9662, 2-chloro-5-nitro-N-henylbenzamide]
growth of tumour cell lines [3]: inhibited growth | rosiglitazone-induced growth inhibition ([3]; combination with rosiglitazone): enhanced rather than reversed | activation of PPARgamma (PPARgamma [4]): prevented activation of PPARgamma | abrogation of suppression of HSC collagen by 15dPGJ(2) ([5]; concomitant treatment): 70% | 15-deoxy-PGJ2-induced cell growth inhibition [6]: reversed

[Cl-].[K+] [KCl]
change in resting tone ([7]; glucose-PSS): -0.8 ± 0.8 g | change in resting tone ([7]; lactate-PSS): 1.5 ± 0.7 g | change in resting tone ([7]; pyruvate-PSS): -2.1 ± 0.8 g

NC(=O)c1ccc[n+]([C@@H]2O[C@H](COP(=O)([O-])OP(=O)(O)OC[C@H]3O[C@@H](n4cnc5c(N)ncnc54)[C@H](O)[C@@H]3O)[C@@H](O)[C@H]2O)c1 [NAD(+)]
translocation of the apoptosis-inducing factor from mitochondria to nuclei [8]: blocked translocation | glycolytic capacity and cell death ([8]; 10 mM extracellular NAD(+) after MNNG exposure): completely restored glycolytic capacity and prevented cell death | MPT and cell death [8]: blocked both MPT and cell death

COc1cccc(-c2cc(=O)c3ccccc3o2)c1N [PD98059, 2′-amino-3′-methoxyflavone]
15-deoxy-PGJ2-induced cell growth inhibition [6]: significantly prevented

CCCCC/C=C/C=C1/C(=O)C=C[C@@H]1C/C=C\CCCC(=O)O [PGJ2, 15-deoxy-Delta12,14-prostaglandin J2]
proliferation [9]: inhibited proliferation | EP2 mRNA and protein levels [2]: significant decrease | cell growth [2]: inhibition of cell growth | IL-1, IL-6 and TNFalpha secretion (THP-1 monocytic cells): inhibitory effect | IL-1Ra production (THP-1 monocytic cells): increasing IL-1Ra production | nitrotyrosine formation and ICAM-1 upregulation during reperfusion (0.3 mg kg-1 i.v.): markedly reduced | fall in mean arterial blood pressure, mortality rate, MPO activity, MDA levels, TNF-alpha and IL-1 beta, histological gut injury (0.3 mg kg-1 i.v. 30 min prior to ischaemia): significantly reduced | alpha1 (I) procollagen promoter activity [5]: inhibited | HSC DNA and collagen synthesis ([5]; 10 microm 15dPGJ(2), 0.1 approximately 10 microm BRL49653, WY14643 >100 microm, not <10 microm): inhibited DNA and collagen synthesis without affecting the cell viability | induction of apoptosis [6]: increased the induction of apoptosis in a dose-dependent manner | cell growth ([6]; both cells): inhibited cell growth in time- and dose-dependent manners

O=S(=O)(c1ccccc1)N(CC(F)(F)F)c1ccc(C(O)(C(F)(F)F)C(F)(F)F)cc1 [T0901317]
suppressive effects of LXRs on PPARa-induced PPRE-luciferase activity (LXR): dose dependently enhanced

NC(=O)c1ccccc1 [benzamide]
NAD(+) depletion resulting from PARP1 activation [10]: prevented the NAD(+) depletion | poly(ADP-ribose) accumulation [10]: decrease | Cell death [10]: markedly reduced

O=C(OC[C@H]1O[C@@H](OC(=O)c2cc(O)c(O)c(OC(=O)c3cc(O)c(O)c(O)c3)c2)[C@H](OC(=O)c2cc(O)c(O)c(OC(=O)c3cc(O)c(O)c(O)c3)c2)[C@@H](OC(=O)c2cc(O)c(O)c(OC(=O)c3cc(O)c(O)c(O)c3)c2)[C@@H]1OC(=O)c1cc(O)c(O)c(OC(=O)c2cc(O)c(O)c(O)c2)c1)c1cc(O)c(O)c(OC(=O)c2cc(O)c(O)c(O)c2)c1 [gallotannin]
NAD(+) depletion resulting from PARP1 activation [10]: prevented the NAD(+) depletion | poly(ADP-ribose) accumulation [10]: increase | Cell death [10]: equally reduced

CC(C)=CCC(=O)C1(O)C(O)=C(C(=O)C(C)C)C(=O)C1CC=C(C)C (stereo not shown) [isocohumulone]
activation of PPARgamma (PPARgamma [11]): activate | activation of PPARalpha (PPARalpha): activate

CC(C)=CCC(=O)C1(O)C(O)=C(C(=O)CC(C)C)C(=O)C1CC=C(C)C (stereo not shown) [isohumulone]
body weight increase versus control group [12]: did not result in significant body weight gain | reduced plasma free fatty acid level [12]: 73.1% | reduced plasma glucose level [12]: 65.3% | reduced plasma triglyceride level [12]: 62.6% | activation of PPARgamma (PPARgamma [11]): activate | activation of PPARalpha (PPARalpha): activate

CC(O)C(=O)O (stereo not shown) [lactate]
increase of O2 consumption ([7]; 10 mm in PSS): without effect

CN(C)C(=N)N=C(N)N [metformin]
HbA1c, insulin, and free fatty acid concentrations ([13]; 8 mg rosiglitazone or 2 g metformin, 16 weeks): similarly decreased | Body weight at 16 weeks ([13]; 2 g metformin, baseline 84+/−4, P<0.05): 82 ± 4 kg | Serum adiponectin concentrations, increase ([13]; 16 weeks): remained unchanged | Liver fat (proton spectroscopy) at 16 weeks ([13]; baseline 15+/−3 rosiglitazone, 13+/−3 metformin): 14+/−3%

COC(=O)C(C)=O [methyl pyruvate]
NADH and NADPH response (pancreatic islets): stimulated a robust NADH and NADPH response | ATP production [14]: higher | K(ATP) current (K(ATP) channels): inhibited the K(ATP) current | mitochondrial alkalinization [15]: more marked mitochondrial alkalinization than pyruvate | mitochondrial metabolism compared with pyruvate [15]: more efficient than pyruvate | insulin release ([15]; D-glucose 16.7 mM and/or ester 20.0 mM): negative insulinotropic action | insulin release ([15]; D-glucose 2.8 to 8.3 mM, ester not exceeding 1 0.0 mM): positive insulinotropic action | NAD(P)H autofluorescence, ATP production, ATP/ADP ratio (pancreatic beta-cells): slightly decreased NAD(P)H autofluorescence and did not influence ATP production or the ATP/ADP ratio | cytosolic free Ca(2+) concentration (pancreatic beta-cells): increased the cytosolic free Ca(2+) concentration after an initial decrease | increase in insulin secretion relative to that induced by glucose (pancreatic beta-cells): 6 fold | electrical activity (pancreatic beta-cells; 0.5 mM glucose): elicited electrical activity | beta-cell membrane depolarization (pancreatic beta-cells; 5-20 mM): depolarized the beta-cell in a concentration-dependent manner | concentration of maximal effect on insulin secretion (pancreatic beta-cells; absence of glucose): 5 mM | insulin secretion (pancreatic beta-cells; absence of glucose, pyruvate 5-20 mM): stimulated insulin secretion | insulin secretion and KATP block (pancreatic beta-cells; islets): block of KATP | ATP/ADP ratio in whole islets (pancreatic beta-cells; pyruvate 5 mM, MP 5 mM, glucose 20 mM): no effect | cation current across the inner membrane [16]: directly inhibited

O=C(O)c1c(Sc2ccccc2)c2cc(Cl)ccc2n1Cc1ccc(Cl)cc1 [nTZDpa]
apoptosis (human coronary VSMCs): induce caspase-mediated apoptosis | vascular smooth muscle cell growth [17]: inhibited vascular smooth muscle cell growth

CCCCCCCC(=O)O [octanoate]
adverse energetic effects of malate-aspartate shuttle inhibition (porcine carotid arteries): normalized

CN(CCOc1ccc(CC2SC(=O)NC2=O)cc1)c1ccccn1 (stereo not shown) [rosiglitazone]
blood counts, viral loads, CD4 counts [18]: no significant changes

cyclosporin A
translocation of the apoptosis-inducing factor from mitochondria to nuclei [8]: blocked translocation | MPT and cell death [8]: blocked MPT and cell death

nobotanin B
Cell death [10]: equally reduced
